# Assay results from US10183011B2, “Anti-depression compounds” (Board of Regents of the University of Texas System, priority 2009, dated 2019).
# Experiments:
# SNc dopaminergic neurons = assay: MPTP-toxicity to SNc dopaminergic neurons, treatment started 24 hours after the last MPTP dose; assay type: in vivo, mouse (C57Bl/6); conditions: for dopaminergic axons in the striatum (TH staining): 20 mg/kg/day
# Description: FIG. 29A and FIG. 29B. Neuroprotective efficacy of P7C3 and P7C3A20 from MPTP-toxicity to SNc dopaminergic neurons. FIG. 29A—Test compounds were evaluated by dose response assay for their ability to block MPTP-neurotoxicity in the SNc. […] VEH group contained 30 animals: 15 animals that received the P7C3A20/P7C3 vehicle, and 15 animals that received Dimebon vehicle (saline). […] Representative immunohistochemical pictures of TH-staining in the SNc are shown below the graph. Dosing is expressed as total mg/day, and was administered intraperitoneally in divided doses twice daily. Data are expressed as mean±SEM. […] P7C3A20 does so with greater effect, and Dimebon offers no protection. Striatal sections were obtained from the same mice used in FIG. 2, and compound treatment groups are from mice that received a dose of 20 mg/kg/d.
# We compared the protective efficacy of our agents in the Tatton and Kish model of MPTP administration, which induces prolonged apoptotic death of SNc dopaminergic neurons lasting about 3 weeks after a short course of daily MPTP administration. Mice were treated daily for 5 days with 30 mg/kg/day free base MPTP. On the sixth day, 24 hours after receiving the fifth and final dose of MPTP, daily treatment with P7C3, P7C3A20, Dimebon or vehicle was initiated. […] Dose-response studies were conducted in which mice received twice daily doses of each compound (or vehicle) for the ensuing 21 days (FIG. 29A). […] At the end of the 21 day treatment period, mice were sacrificed by transcardial perfusion with 4% paraformaldehyde, and fixed brains were sectioned through the striatum and SNc at 30 μM intervals. Every fourth section (spaced 120 μM apart) was stained with antibodies specific to tyrosine hydroxylase (TH) (Abcam, rabbit anti-TH, 1:2500). The TH enzyme catalyzes the conversion of the amino acid L-tyrosine to L-3,4-dihydroxyphenylalanine (L-DOPA), which serves as the precursor for dopamine. TH staining thus provides a means to immunohistochemically identify dopaminergic neurons. By counting the number of TH+ cells in the SNc, we were able to assess the neuroprotective efficacy of the three chemicals following MPTP exposure. All microscopic analysis was performed by two investigators, blind to treatment group.
# 15 adult male C57Bl/6 mice were individually housed for one week and then injected daily for 5 days with 30 mg/kg/day (i.p.) free base MPTP (Sigma). On day 6, 24 hours after receiving the fifth and final dose of MPTP, daily treatment with P7C3, P7C3A20, Dimebon or vehicle was initiated. Mice were housed in disposable caging, and protective gear and precautions were implemented for handling MPTP in accordance with UT Southwestern Medical Center policy. Dose response studies were conducted in which mice received twice daily doses of each compound (or vehicle) by intraperitoneal injection for the following 21 days, after which mice were sacrificed by transcardial perfusion with 4% paraformaldehyde. Brains were dissected, fixed overnight in 4% paraformaldehyde, and cryoprotected in sucrose for freezing by standard procedures. Frozen brains were sectioned through the striatum and SNc at 30 uM intervals, and every fourth section (spaced 120 μM apart) was stained with antibodies directed against tyrosine hydroxylase (TH) (Abcam, rabbit anti-TH, 1:2500). Diaminobenzidine was used as a chromagen, and tissue was counter-stained with hematoxylin to aid in visualization of the neuroanatomy. Images were analyzed with a Nikon Eclipse 90i motorized research microscope with Plan Apo lenses coupled with Metamorph Image Acquisition software (Nikon). TH+ neurons were counted with Image J software (NIH) in every section by 2 blinded investigators and results were averaged and multiplied by the sectioning interval to determine the total number of TH+ neurons per SNc.
# [1] = tested on: spinal cord motor neurons; assay: Spinal motor neuron survival (ChAT) in G93A-SOD1 mice, treatment from disease onset (day 80); assay type: in vivo, mouse; conditions: 20 mg/kg/day from day 80; days 90-120
# Description: FIG. 34A and FIG. 34B. P7C3A20 and P7C3 block motor neuron cell death in the spinal cord when administered at the time of disease onset to G93A-SOD1 mutant mice. Treatment of G93A-SOD1 mutant mice with 20 mg/kg/d of P7C3A20, P7C3 or Dimebon, or the appropriate vehicle, was initiated on day 80. Five mice from each group were sacrificed on days 90, 100, 110 and 120. The number of spinal cord motor neurons per cubic millimeter of lumbar spinal cord was determined through immunohistochemical staining for ChAT and quantification with NIH Image J software. All images were analyzed blind to treatment group. Spinal cord motor neurons in G93A-SOD1 mutant mice died over time as expected. Spinal cord motor neuron cell death was blocked by administration of P7C3A20. P7C3 was intermediately protective, while Dimebon had no neuroprotective efficacy. (FIG. 34A) Representative staining of ChAT of one ventral horn from each of the 5 mice in each treatment group at 110 days. (FIG. 34B) Graph representation.
# Based on the promising results of early (day 40) administration of P7C3 to G93A-SOD1 mutant mice, we next sought to determine whether P7C3A20, P7C3 or Dimebon could protect ventral horn spinal motor neurons when administered at the expected time of disease onset (day 80). We initiated administration of either P7C3, P7C3A20 or Dimebon, each at a dose of 20 mg/kg/day, and analyzed motor neuron cell survival by staining lumbar spinal sections for choline acetyltransferase (ChAT). ChAT, the enzyme that synthesizes the neurotransmitter acetylcholine, serves as a marker for spinal cord motor neurons. All sections were counted blind to treatment group in order to quantify motor neuron survival, and five mice for each treatment group were analyzed at 90, 100, 110 and 120 days. Each treatment group was compared to its own sibling-matched group that received the corresponding vehicle. […]
SMILES,dopaminergic axons in the striatum (TH staining) (SNc dopaminergic neurons),protection from MPTP (SNc dopaminergic neurons; any dose),spinal motor neuron cell death [1],"activity in the MPTP protection assay (SNc dopaminergic neurons; new analogs, 10 mice for each compound)","onset of efficacy, over VEH (SNc dopaminergic neurons; 1 mg/kg/day for 21 days) [%]",number of dopaminergic neurons in the SNc relative to normal mice not exposed to MPTP (SNc dopaminergic neurons; 20 mg/kg/day for 21 days),enhanced survival of TH+ SNc neurons over VEH (SNc dopaminergic neurons; 5 mg/kg/day for 21 days),protection relative to vehicle (SNc dopaminergic neurons; 20 mg/kg/day for 21 days) [%]
"Cc1ccc2c(c1)c1c(n2CCc2ccc(C)nc2)CCN(C)C1 [Dimebon, 2,3,4,5-Tetrahydro-2,8-dimethyl-5-(2-(6-methyl-3-pyridyl)ethyl)-1H-pyrido(4,3-b)indole, reference compound]",offered no protection of dopaminergic axons in the striatum,failed to confer any measurable degree of protection from MPTP at any dose,indistinguishable from vehicle treatment groups,–,–,–,–,–
OC(CNc1cccc2ccccc12)Cn1c2ccc(Cl)cc2c2cc(Cl)ccc21 (stereo not drawn) [Example P7C3-S184],–,–,–,inactive in both in vivo assays,–,–,–,–
"COc1cccc(NCC(F)Cn2c3ccc(Br)cc3c3cc(Br)ccc32)c1 (stereo not drawn) [Example P7C3A20, N-(3-(3,6-dibromo-9H-carbazol-9-yl)-2-fluoropropyl)-3-methoxyaniline]",almost completely blocked depletion of dopaminergic axons in the striatum,–,provided significant protection from spinal motor neuron cell death,–,30,about 85%,–,–
OC(CNc1ccccc1)Cn1c2ccc(Br)cc2c2cc(Br)ccc21 (stereo not drawn) [Example P7C3],qualitatively notable protection,–,provided intermediate protection on days 100 (p=0.048) and 110 (p=0.01),–,–,–,about 40%,~60
